According to article PMC4316997, “Complex Structure and Biochemical Characterization of the Staphylococcus aureus Cyclic Diadenylate Monophosphate (c-di-AMP)-binding Protein PstA, the Founding Member of a New Signal Transduction Protein Family” (The Journal of Biological Chemistry, 2014):

How the values were obtained:
[1] = target: T1, PstA (PstASA, His-PstASA) (Staphylococcus aureus, UniProt A0A0H2XH20); test: DRaCALA, purified protein, […]-labelled ligand on nitrocellulose; assay type: binding
T1 construct: gene SAUSA300_0460; sites at monomer-monomer interfaces

[2] = target: T2, PstA (PstASA, His-PstASA) (Staphylococcus aureus, UniProt A0A0H2XH20, T43A); test: biochemical
T2 construct: gene SAUSA300_0460

[3] = target: T3, PstA (PstASA, His-PstASA) (Staphylococcus aureus, UniProt A0A0H2XH20, K2A); test: biochemical
T3 construct: gene SAUSA300_0460

[4] = target: T4, PstA (PstASA, His-PstASA) (Staphylococcus aureus, UniProt A0A0H2XH20, D12A); test: biochemical
T4 construct: gene SAUSA300_0460

[5] = target: T5, PstA (PstASA, His-PstASA) (Staphylococcus aureus, UniProt A0A0H2XH20, N41A); test: biochemical
T5 construct: gene SAUSA300_0460

[6] = target: T6, PstA (PstASA, His-PstASA) (Staphylococcus aureus, UniProt A0A0H2XH20, R67A); test: biochemical
T6 construct: gene SAUSA300_0460

[7] = target: N-terminally His-tagged PstA protein from S. aureus (His-PstASA) (S. aureus); test: SEC-MALS; 100 uM purified His-PstASA in 50 mM Tris-HCl pH 7.5, 200 mM NaCl, 5% glycerol; Superdex 10/300 column coupled to a multiangle laser light scattering detector

stoichiometry N [7] | Compound | Kd [1] [nM] | Kd [2] [nM] | Kd [3] [nM] | Kd [4] [nM] | Kd [5] [nM] | Kd [6] [nM]
 | Nc1ncnc2c1ncn2[C@@H]1O[C@@H]2COP(=O)(O)O[C@H]3[C@@H](O)[C@H](n4cnc5c(N)ncnc54)O[C@@H]3COP(=O)(O)O[C@H]2[C@H]1O [c-di-AMP] | 370 ± 30 | 1800 ± 200 | 340 ± 40 | 320 ± 50 | 9600 ± 2300 | 480 ± 40
3 | N-terminally His-tagged PstA protein from S. aureus (His-PstASA) (natural protein) |  |  |  |  |  | 
